Patent US20040152713A1, “Methods for treating joint pain or improving sleep using an estrogen agonist/antagonist” (Pfizer Inc., priority 2003, published 2004)

Columns and labels:
postmenopausal women [1] = test: Randomized, double blind, placebo controlled study of oral lasofoxifene on joint pain (visual analog scale pain score); format: in vivo, human; conditions: 3 months assessment, self-reported VAS 100 mm scale (0 mm=no pain, 100 mm=worst pain)
Procedure: (§1) The Effects of Oral Administration of (−)-cis-6-phenyl-5-[4-(2-pyrrolidin-1-yl-ethoxy)-phenyl]-5,6,7,8-tetrahydro-naphthalene-2-ol, D-tartrate salt (Iasofoxifene) on Joint Pain: A Randomized, Double Blind, Placebo Controlled Study Subjects: A double blind, randomized, placebo controlled trial of approximately three hundred and seventy five women between the ages of 50 and 74 years of age inclusive, and 1-20 years postmenopausal was carried out. The subjects selected for the study were ambulatory females between the ages of 50 and 74 years of age (inclusive) who gave written informed consent for participation in the study. […] The subject's Screening/Baseline mean L1-L4 lumbar bone mineral density (BMD) of the spine must be less than +2.0 standard deviations and greater than −2.5 standard deviations of age-and sex-matched bone mineral density (Z-score) as determined by standards of the manufacturer of the Dual X-ray Absorptiometer (DXA) used in the determination of that BMD. […] The subjects' endometrial thickness were typically <5 mm as determined by transvaginal ultrasound (TVU) and subjects outside of this criteria were asked to undergo additional baseline evaluation following initial randomization. […]

postmenopausal women [2] = test: Randomized, double blind, placebo controlled study of oral lasofoxifene on sleep (Sleep Problems subscale of Women's Health Questionnaire); format: in vivo, human; conditions: 3 months assessment
Procedure: The Effects of Oral Administration of (−)-cis-6-phenyl-5-[4-(2-pyrrolidin-1-yl-ethoxy)-phenyl]-5,6,7,8-tetrahydro-naphthalene-2-ol, D-tartrate salt (lasofoxifene) on Sleep: A Randomized, Double Blind, Placebo Controlled Study
as §1, with “Subjects:” for “The Effects of Oral Administration of (−)-cis-6-phenyl-5-[4-(2-pyrrolidin-1-yl-ethoxy)-phenyl]-5,6,7,8-tetrahydro-naphthalene-2-ol, D-tartrate salt (Iasofoxifene) on Joint Pain: A Randomized, Double Blind, Placebo Controlled Study Subjects:”
Assessment Method: Patient self-report recorded on Sleep Problems subscale of standardized questionnaire, Women's Health Questionnaire (WHQ; Hunter, M. 1992. Psychology and Health, 7: 45-54).

O=C(O)C(O)C(O)C(=O)O.Oc1ccc2c(c1)CC[C@H](c1ccccc1)[C@@H]2c1ccc(OCCN2CCCC2)cc1 [Lasofoxifene, (−)-cis-6-phenyl-5-[4-(2-pyrrolidin-1-yl-ethoxy)-phenyl]-5,6,7,8-tetrahydro-naphthalene-2-ol, D-tartrate salt]
Joint Pain Changes Resulting From Treatment (Mean Change from Baseline) (postmenopausal women [1]; lasofoxifene 0.25 mg/day oral): −8.16
Joint Pain Changes Resulting From Treatment (Mean Change from Baseline) (postmenopausal women [1]; lasofoxifene 1.0 mg/day oral): 4.52
Improvement in sleep (less sleep disturbance) vs. placebo, in words (postmenopausal women [2]; lasofoxifene 0.4 mg treatment group vs. placebo): statistically significant improvement in sleep
Mean Change from Baseline (WHQ Sleep Problems subscale) (postmenopausal women [2]; lasofoxifene 0.4 mg/day oral, patient self-report): −0.09
